Like-named read-outs stand apart in the source and are kept apart here.

Assay [1] concerns the target PDE4D (human recombinant) (Homo sapiens, UniProt Q08499). Put plainly: PDE4D inhibition, IMAP Fluorescence Polarisation (FP) assay. Format: biochemical. Particulars: mean of n = 3 readings; accurate to about ±0.5 log unit; read-out: PDE4D pIC50 (± about 0.5) (FP assay), Mean pIC50 value (converted). An excerpt: Human recombinant PDE4D (HSPDE4D3A) is disclosed in P. A. Baecker et al., “Isolation of a cDNA encoding a human rolipram-sensitive cyclic AMP phoshodiesterase (PDE IVD)”, Gene, 1994, 138, 253-256.
The ability of compounds to inhibit catalytic activity at PDE4B (human recombinant) or PDE4D (human recombinant) can optionally be determined by IMAP Fluorescence Polarisation (FP) assay (IMAP Explorer kit, available from Molecular Devices Corporation, Sunnydale, Calif., USA; Molecular Devices code: R8062) in 384-well format.
The IMAP FP assay is able to measure PDE activity in an homogenous, non-radioactive assay format. […] Binding of Fl-AMP product to the beads (coated with the immobilised trivalent cations) slows the rotation of the bound Fl-AMP and leads to an increase in the fluorescence polarisation ratio of parallel to perpendicular light. […]
Test compounds (small volume, e.g. ca. 0.5 to 1 microlitres (ul), suitably ca. 0.5 ul, of solution in DMSO) are preincubated at ambient temperature (room temperature, e.g. 19-23° C.) in black 384-well microtitre plates (supplier: NUNC, code 262260) with PDE enzyme in 10 mM Tris-HCl buffer pH 7.2, 1 mM MgCl2, 0.1% (w/v) bovine serum albumin, and 0.05% NaN3 for 10-30 minutes. […] The Fluorescence Polarisation (FP) ratio of parallel to perpendicular light is measured using an Analyst™ plate reader (from Molecular Devices Corporation). […]
(Polarisation of emitted light reports the rotation of a fluorescent probe.)

The test system of assay [2] is TNF-α (TNF-alpha) production in Human Whole Blood. Put plainly: Inhibition of TNF-alpha production in Human Whole Blood (IGEN assay). The assay is classed as cell-based. The protocol:
This is an optional supplementary test, e.g. for potentially orally-administrable PDE4 inhibitors. Also, as the assay may measure the effect of PDE4 inhibitors after loss by protein binding, it might possibly also be relevant to externally-topically-administrable PDE4 inhibitors as protein-binding-loss of compound is possible during transport through the skin.
Test compounds are prepared as a ca. 10 mM stock solution in DMSO and a dilution series prepared in DMSO with 8 successive 3-fold dilutions, either directly from the 10 mM stock solution or from a more dilute solution in DMSO. The compound is added to assay plates using a Biomek Fx liquid handling robot.
Heparinised blood drawn from normal volunteers is dispensed (ca. 100 μl=ca. 100 ul) into microtitre plate wells containing ca. 0.5 or ca. 1.0 μl (ul, microlitres) of an appropriately diluted test compound solution. […] Plasma TNFα content is determined by electrochemiluminescence assay using the MSD technology (see below), the IGEN technology (see below) or by enzyme linked immunosorbant assay (ELISA) (see below).
Ca. […] 50 μl (ul) of streptavidin/biotinylated anti-TNF-α antibody mix, ca. 25 μl ruthenium tagged anti-TNF-α monoclonal and ca. 100 μl PBS containing 0.1% bovine serum albumin are added to each well and the plates are sealed and shaken for ca. 2 hours before being read on an IGEN instrument.

PDE4D (human recombinant), sequence (Q08499 1-673 isoform Q08499-2): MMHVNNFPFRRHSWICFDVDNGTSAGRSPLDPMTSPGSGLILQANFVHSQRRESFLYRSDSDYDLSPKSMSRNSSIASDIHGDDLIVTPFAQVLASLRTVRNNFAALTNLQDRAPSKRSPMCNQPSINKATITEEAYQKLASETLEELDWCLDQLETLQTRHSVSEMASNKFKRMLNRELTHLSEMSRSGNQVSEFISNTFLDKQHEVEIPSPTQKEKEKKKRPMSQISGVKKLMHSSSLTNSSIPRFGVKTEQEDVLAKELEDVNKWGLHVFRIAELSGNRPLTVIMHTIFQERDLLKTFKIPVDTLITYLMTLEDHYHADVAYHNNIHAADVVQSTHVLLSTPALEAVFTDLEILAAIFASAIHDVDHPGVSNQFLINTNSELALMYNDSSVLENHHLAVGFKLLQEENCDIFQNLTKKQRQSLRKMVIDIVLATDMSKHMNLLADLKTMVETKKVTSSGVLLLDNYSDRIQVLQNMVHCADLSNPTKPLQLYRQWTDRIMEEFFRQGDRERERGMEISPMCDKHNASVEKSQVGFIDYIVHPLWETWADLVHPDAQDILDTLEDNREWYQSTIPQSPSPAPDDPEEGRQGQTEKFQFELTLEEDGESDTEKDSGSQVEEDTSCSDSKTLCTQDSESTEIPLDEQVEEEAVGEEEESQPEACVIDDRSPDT

As for `CCc1nc2c(cnn2CC)c(NC2CCOCC2)c1CNC(=O)c1cc(C)no1` [Example 1, N-{[1,6-diethyl-4-(tetrahydro-2H-pyran-4-ylamino)-1H-pyrazolo[3,4-b]pyridin-5-yl]methyl}-3-methyl-5-isoxazolecarboxamide], the IC50 in assay [1] is ~0.1 nM; in assay [2] (n = about 4, LPS-stimulated, read-out: Whole Blood, Mean pIC50 (IGEN assay) (converted)), ~2 nM; in assay [2] (range of individual measurements, read-out: Whole Blood individual pIC50 test values, range (IGEN assay) (converted)), 1.26 to 2.63 nM.

The values are drawn from patent US20080255186A1, “Pyrazolo[3,4-B]Pyridine Compound, and Its Use as a Pde4 Inhibitor” (priority 2005, published 2008).
